# According to PMC4626104, “Inhibition on Proteasome β1 Subunit Might Contribute to the Anti-Cancer Effects of Fangchinoline in Human Prostate Cancer Cells” (PLoS ONE, 2015):
# pKd: −log10 of the molar value.
# Assays:
# [1] = target: T1, recombinant human proteasome β1 subunit (Homo sapiens, UniProt P28072); assay: Surface plasmon resonance (Biacore) binding assay; details: Biacore, 25°C, 1:1 Langmuir model
# T1 construct: His-Tag; made in house; host or cells: Escherichia coli
# T1 sequence (P28072 1-239): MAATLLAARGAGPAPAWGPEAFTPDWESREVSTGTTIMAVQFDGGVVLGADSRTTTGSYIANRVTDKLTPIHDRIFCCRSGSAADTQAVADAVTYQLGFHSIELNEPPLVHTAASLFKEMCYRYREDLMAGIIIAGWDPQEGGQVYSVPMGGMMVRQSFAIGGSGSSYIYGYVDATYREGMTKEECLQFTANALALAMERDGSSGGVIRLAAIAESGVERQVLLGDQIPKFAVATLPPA
# Description: The recombinant human proteasome β1 subunit, product of PSMB6 gene, was expressed as His-Tag proteins using Escherichia coli, and then purified by affinity chromatography as reported in our previous study. The binding affinities of fangchinoline or tetrandrine to recombinant proteasome catalytic β1 subunit, were assayed in vitro using an Biacore 3000 instrument (Biacore AB, Rapsgatan 7, S-754 50 Uppsala, Sweden) as reported before. Briefly, recombinant proteasome β1 subunit protein was immobilized on a CM5 sensor chip as ligand in 11624.5 RU with N-ethyl-N’-(3-dimethylaminopropyl) carbodiimide and N-hydroxysuccinimide according to the standard primary amine-coupling procedures, and HBS-EP (10 mM HEPES, 150 mM NaCl, 3 mM EDTA, 0.005% (v/v) surfactant P20, pH 7.4) was used as the running buffer. Equilibration of the baseline was performed by a continuous flow of HBS-EP through the chip surface for 1 to 2 h. Biacore data were collected at 25°C with HBS-EP as the running buffer at a constant flow of 20 μL/min. Fangchinoline or tetradrine was serially diluted into the running buffer to 0, 2.4, 3.43, 4.90, 7.0, 10 and 20 μM. The samples were injected into the channels at a flow rate of 20 μL/min, followed by washing with the running buffer. The binding responses were recorded continuously in response units (RU) at a frequency of 1Hz as sensorgrams and presented as a function of time. The association (k a) and dissociation (k d) rate constants, the equilibrium dissociation constant ( KD=kd/ka ) were determined by analysis of the sensorgram-curves obtained at different concentrations of the compound by use of BIA evaluation software version 3.1 (Biacore) and the 1:1 Langmuir binding fitting model.
# [2] = test system: ubiquitinated proteins, IκB-α, Bax, p27 in PC-3 cells; assay: Western blotting of ubiquitinated proteins and proteasome substrates in PC-3 cells; assay type: cell-based, human
# Description: Western blotting assay was conducted as described before. Briefly, an aliquot of protein (100 μg) sample was loaded onto a 12% SDS gel, separated electrophoretically, and transferred to a Nitrocellulose membrane (Bio-Rad). After the membrane was incubated with 10 mM TBS with […] and 5% dehydrated skim milk to block nonspecific protein binding, the membrane was incubated with primary antibodies overnight at 4°C. The primary antibodies (all from Cell Signaling Technology) used were rabbit polyclonal antibody against human IκB-α (#4812, 1:400), Bax (#2772, 1:400), proteasome β1 subunit (PSMB6) (#13267, 1:500), β-actin (#4967, 1:400) and mouse monoclonal antibody against human p27 Kip1 (#3688, 1:400) or ubiquitin (#3936, 1:1000). After TBS washes, blots were then incubated with secondary antibody for 2 h at room temperature at a 1:1000 dilution and then visualized using chemiluminescence (Pierce Biotechnology, Rockford, IL, USA). The secondary antibodies used were HRP-linked goat anti-rabbit IgG (#7074) and HRP-linked horse anti-mouse IgG (#7076), both from Cell Signaling Technology.
# PC-3 tumor xenografts = assay: PC-3 tumor xenograft experiments (tumor volume, TUNEL); assay type: in vivo, nude mice
# Description: Male nude immunodeficient mice Balb/c-nu-nu, aged 4 weeks, were purchased from Shanghai Experimental Animal Center. All procedures involving animals were approved by the Institutional Animal Care and Use Committee of Shanghai Institute of Materia Medica, Chinese Academy of Sciences. On day 0, PC-3 cells (8×10^6 cells) suspended in 0.2 mL of serum-free RPMI 1640 were inoculated s.c. in the right flank of each mouse (six mice per group). 14 days after inoculation, mice were randomly divided into 3 groups and started injection with either vehicle control or fangchinoline at 25 mg/kg (ip., QD) or 50 mg/kg (ip., QD). Tumor sizes were measured every 4 days using calipers and their volumes were calculated using a standard formula: width^2×length/2. The relative tumor volume (RTV) was defined as the ratio of the tumor volume at a indicated time and the tumor volume at the start of drug treatment. Body weight was measured daily. On day 30 after inoculation, mice were sacrificed by CO2 inhalation and tumor xenografts were dissected. To visualize apoptosis in tumor xenografts, TUNEL labeling was conducted to detect apoptotic nuclei using In Situ Death Detection Kit (Roche Molecular Biochemicals). Briefly, tumor xenografts were fixed with 10% formalin solution at room temperature for 24 h and then embedded by paraffin. Specimens were heated for 1h by Water Bath-Slide Drier (LEICA H1 1220, German), incubated with dimethylbenzene for two times (8 min each) and then incubated with 100%, 95%, 90% and 85% ethanol for two times (3 min each). Specimens were then incubated with 0.1M Citrate buffer (pH 6.0) for microwave irradiation. After washing with PBS for two times (3 min each), slices were incubated with reaction buffer (from the In Situ Death Detection Kit) in a humid atmosphere at 37°C for 1 h. Slices were then washed with PBS three times (3 min each) to remove unincorporated fluorescein–deoxyuridine triphosphate. Nuclei were counterstained with 4,6-diamidino-2-phenylindole (DAPI) 1 μg/mL for 3 min and then washed with PBS for three times (3 min each). Images were captured using a 20X objective (Olympus BX51, Japan) on an epifluorescence microscope. Furthermore, the proteasome activities of tumor xenografts were assayed. Briefly, tumor xenografts were homogenerized in proteasome activity assay buffer using the FastPrep System (MP FastPrep-24, U.S.A), then centrifugation at 4°C for 30 min. The supernatants were then used for assay of proteasome activities using method as described above for analysis of cellular proteasome activities.
# [3] = 25mg/kg ip. QD, day 14 after inoculation (start of treatment)
# [4] = 25mg/kg ip. QD, day 17 after inoculation
# [5] = 25mg/kg ip. QD, day 21 after inoculation
# [6] = 25mg/kg ip. QD, day 24 after inoculation
# [7] = 25mg/kg ip. QD, day 27 after inoculation
# [8] = 25mg/kg ip. QD, day 30 after inoculation
# [9] = 50mg/kg ip. QD, day 14 after inoculation (start of treatment)
# [10] = 50mg/kg ip. QD, day 17 after inoculation
# [11] = 50mg/kg ip. QD, day 21 after inoculation
# [12] = 50mg/kg ip. QD, day 24 after inoculation
# [13] = 50mg/kg ip. QD, day 27 after inoculation
# [14] = 50mg/kg ip. QD, day 30 after inoculation
smiles,measurement,setting,value
COc1ccc2cc1Oc1ccc(cc1)C[C@H]1c3cc(c(OC)cc3CCN1C)Oc1c(O)c(OC)cc3c1[C@H](C2)N(C)CC3 [fangchinoline],Dissociation (k d),[1],0.0353 S^-1
same,pKd,[1]; read-out: Equilibrium dissociation (K D),5.33
same,kon,"[1]; pH 7.4, read-out: Association (k a)",7550 M⁻¹ s⁻¹
same,"Ubiquitinated IκBα (Ub-IκBα), Ub-p27 and Ub-Bax levels",[2],dose-dependently and time-dependently induced increase
same,Treatment time after which accumulation of ubiquitinated proteins was observed,[2]; 27 μM,1 h
same,Lowest dose at which accumulation of ubiquitinated proteins was observed,[2]; 24 h treatment,8 µM
same,Tumor volume (Maximum),PC-3 tumor xenografts; [3],519.59 mm^3
same,Tumor volume (Mean ± SEM),PC-3 tumor xenografts; [3],370.0±42.37 mm^3
same,Tumor volume (Maximum),PC-3 tumor xenografts; [4],512.11 mm^3
same,Tumor volume (Mean ± SEM),PC-3 tumor xenografts; [4],356.5±51.63 mm^3
same,Tumor volume (Maximum),PC-3 tumor xenografts; [5],812.68 mm^3
same,Tumor volume (Mean ± SEM),PC-3 tumor xenografts; [5],577.7±53.05 mm^3
same,Tumor volume (Maximum),PC-3 tumor xenografts; [6],1147.52 mm^3
same,Tumor volume (Mean ± SEM),PC-3 tumor xenografts; [6],955.0±78.87 mm^3
same,Tumor volume (Maximum),PC-3 tumor xenografts; [7],1439.56 mm^3
same,Tumor volume (Mean ± SEM),PC-3 tumor xenografts; [7],1248±50.73 mm^3
same,Tumor volume (Maximum),PC-3 tumor xenografts; [8],1655.05 mm^3
same,Tumor volume (Mean ± SEM),PC-3 tumor xenografts; [8],1413±61.89 mm^3
same,Tumor volume (Maximum),PC-3 tumor xenografts; [9],356.43 mm^3
same,Tumor volume (Mean ± SEM),PC-3 tumor xenografts; [9],348.4±3.470 mm^3
same,Tumor volume (Maximum),PC-3 tumor xenografts; [10],402.14 mm^3
same,Tumor volume (Mean ± SEM),PC-3 tumor xenografts; [10],321.3±21.46 mm^3
same,Tumor volume (Maximum),PC-3 tumor xenografts; [11],462.36 mm^3
same,Tumor volume (Mean ± SEM),PC-3 tumor xenografts; [11],374.8±37.58 mm^3
same,Tumor volume (Maximum),PC-3 tumor xenografts; [12],812.28 mm^3
same,Tumor volume (Mean ± SEM),PC-3 tumor xenografts; [12],593.8±593.8 mm^3
same,Tumor volume (Maximum),PC-3 tumor xenografts; [13],1008.40 mm^3
same,Tumor volume (Mean ± SEM),PC-3 tumor xenografts; [13],857.0±41.00 mm^3
same,Tumor volume (Maximum),PC-3 tumor xenografts; [14],1263.09 mm^3
same,Tumor volume (Mean ± SEM),PC-3 tumor xenografts; [14],1120±66.28 mm^3
same,Growth of PC-3 xenografts (relative tumor volume),PC-3 tumor xenografts; 25 and 50 mg/kg ip. QD,dose-dependently inhibit
same,Apoptosis in PC-3 xenografts (TUNEL labeling),PC-3 tumor xenografts; animals treated with fangchinoline,apoptosis was induced
